IC50 data for ten molecules are collected here from patent US11660303B2, “2-phenylimidazo[4,5-b]pyridin-7-amine derivates useful as inhibitors of mammalian tyrosine kinase ROR1 activity” (KANCERA AB, priority 2016, dated 2023).

Molecules are shown by their SMILES.

Assay [1] relates to PBMC from healthy volunteers. Briefly: CellTiter-Blue Cell Viability Assay, PBMC from healthy volunteers. Format: cell-based. As to conditions: Homo sapiens, cell toxicity, culture 24, 48 and 72 h (time of the values not stated). Here is the method: (§1) The CellTiter-Blue® Cell Viability Assay provides a homogeneous, fluorometric method for estimating the number of viable cells present in multi-well plates. The assay uses the indicator dye resazurin to measure the metabolic capacity of cells. Viable cells retain the ability to reduce resazurin into resorufin, which is highly fluorescent.
(§2) Stock solutions (10 or 100 mM in DMSO) of compounds were serially diluted 1:2 in 11 concentrations and 25 nL/well (100 mM stock) or 50 nL/well (10 mM stock) were acoustically dispensed in assay plates with an EDC acoustic dispenser. Final starting concentration in the assay was 20 μM (0.2% DMSO) or 100 μM (0.1% DMSO) for test compounds.
(§3) Peripheral blood mononuclear cells (PBMC) from CLL patients or healthy volunteers were seeded in assay plates (384-well black/clear, Greiner #781091) pre-dispensed with compounds, 25 μL/well, and cultured for 24, 48 and 72 h. The cell concentration was 50 000 cells/well for PBMC from CLL patients or healthy volunteers. After 24, 48 and 72 h culture, Celltiter Blue reagent was added (5 μL/well) and the plates were incubated for 2 h. The plates were read in an Envision fluorescence reader (PerkinElmer) with Ex544 nm/Em590 nm. Results were calculated as % cytotoxicity compared to background (cells treated with 0.2% DMSO).
(§4) Thus, IC50 values for cell toxicity in PBMC from CLL patients as well as healthy volunteers for some compounds of the invention are shown in Table 3 as measured by the CellTiter-Blue® Cell Viability Assay.
On the technique in general: Alamar Blue is a resazurin reagent that responds to reducing activity.

The test system of a further assay is PBMC from CLL patients. In words: CellTiter-Blue Cell Viability Assay, PBMC from CLL patients. Format: cell-based. As to conditions: Homo sapiens, cell toxicity, culture 24, 48 and 72 h (time of the values not stated). Here is the method: as §1, §2, §3, §4

Regarding `COCCN1CCN(c2ccc(-c3nc4c(NC5CCN(C(C)C)CC5)c(Cl)cnc4[nH]3)cc2OC)CC1` [Example 387, 6-Chloro-2-{3-methoxy-4-[4-(2-methoxyethyl)piperazin-1-yl]phenyl}-N-[1-(1-methylethyl)piperidin-4-yl]-3H-imidazo[4,5-b]pyridin-7-amine], the IC50 in assay [1] is above 20000 nM; with PBMC from CLL patients, 1300 nM.
As to `COCCN1CCN(c2ccc(-c3nc4c(NC5CCN(Cc6ccc(OC)cc6)CC5)c(Cl)cnc4[nH]3)cc2)CC1=O` [Example 260], the IC50 in assay [1] is above 20000 nM; in the assay with PBMC from CLL patients, 220 nM.
For `CC(C)N1CCC(Nc2c(Br)cnc3[nH]c(-c4ccc(N5CCN(Cc6ccncc6)CC5)cc4)nc23)CC1` [Example 151, 6-Bromo-N-[1-(1-methylethyl)piperidin-4-yl]-2-{4-[4-(pyridin-4-ylmethyl)piperazin-1-yl]phenyl}-3H-imidazo[4,5-b]pyridin-7-amine] the same measures were 13700 nM and 390 nM.
For `Clc1cnc2[nH]c(-c3ccc(N4CCOCC4)cc3)nc2c1NC1CCN(Cc2cccs2)CC1` [Example 83, 6-Chloro-2-(4-morpholin-4-ylphenyl)-N-[1-(thiophen-2-ylmethyl)piperidin-4-yl]-3H-imidazo[4,5-b]pyridin-7-amine] the same measures were above 20000 nM and 1000 nM.
With `CCN1CCC(Nc2c(Br)cnc3[nH]c(-c4ccc(N5CCN(C(=O)c6cccnc6)CC5)cc4)nc23)CC1` [Example 304, 6-Bromo-N-(1-ethylpiperidin-4-yl)-2-{4-[4-(pyridin-3-ylcarbonyl)piperazin-1-yl]phenyl}-3H-imidazo[4,5-b]pyridin-7-amine], the IC50 was above 20000 nM in assay [1] and 60 nM with PBMC from CLL patients.
For `CN1CCC(Nc2c(Cl)cnc3[nH]c(-c4ccc(N5CCC(CCO)CC5)cc4)nc23)CC1` [Example 254, 2-[1-(4-{6-Chloro-7-[(1-methylpiperidin-4-yl)amino]-3H-imidazo[4,5-b]pyridin-2-yl}phenyl)piperidin-4-yl]ethanol] the same measures were 16300 nM and 50 nM.
Consider `CN1CCC(Nc2c(Cl)cnc3[nH]c(-c4ccc(N5CCOCC5)cc4)nc23)CC1` [Example 27, 6-Chloro-N-(1-methylpiperidin-4-yl)-2-(4-morpholin-4-ylphenyl)-3H-imidazo[4,5-b]pyridin-7-amine], for which the IC50 is 17700 nM in assay [1] and 90 nM in the assay on PBMC from CLL patients.
For `CN1CCC(Nc2c(Cl)cnc3[nH]c(-c4ccc(N5CCNC(=O)C5)cc4)nc23)CC1` [Example 37, 4-(4-{6-Chloro-7-[(1-methylpiperidin-4-yl)amino]-3H-imidazo[4,5-b]pyridin-2-yl}phenyl)piperazin-2-one] the same measures were above 20000 nM and 290 nM.
The corresponding values for `COCCC1CCN(c2ccc(-c3nc4c(NC5CCN(C)CC5)c(Cl)cnc4[nH]3)cc2)CC1` [Example 281, 6-Chloro-2-{4-[4-(2-methoxyethyl)piperidin-1-yl]phenyl}-N-(1-methylpiperidin-4-yl)-3H-imidazo[4,5-b]pyridin-7-amine] are 8400 nM and 60 nM.
`COCCN1CCN(c2ccc(-c3nc4c(NC5CCN(C)CC5)c(Cl)cnc4[nH]3)cc2)CC1=O` [Example 230, 4-(4-{6-Chloro-7-[(1-methylpiperidin-4-yl)amino]-3H-imidazo[4,5-b]pyridin-2-yl}phenyl)-1-(2-methoxyethyl)piperazin-2-one]: the concentration for half-maximal inhibition (IC50) in assay [1] was above 20000 nM; in the assay on PBMC from CLL patients, 70 nM.

By IC50 is commonly meant the midpoint of a concentration-inhibition curve. A high value points to weaker potency in that assay.
